Assay results: patent US12275731B2, “Azaindole inhibitors of wild-type and mutant forms of LRRK2” (DANA-FARBER CANCER INSTITUTE, INC., priority 2018, dated 2025)

Tests used:
Assay in all cases: KinomeScan profiling
Type in all cases: binding
MARK4 = biological target: T1, MARK4 (Homo sapiens, UniProt Q96L34); conditions: MARK4, 1 μM; read-out: % control
T1 sequence (Q96L34 1-752): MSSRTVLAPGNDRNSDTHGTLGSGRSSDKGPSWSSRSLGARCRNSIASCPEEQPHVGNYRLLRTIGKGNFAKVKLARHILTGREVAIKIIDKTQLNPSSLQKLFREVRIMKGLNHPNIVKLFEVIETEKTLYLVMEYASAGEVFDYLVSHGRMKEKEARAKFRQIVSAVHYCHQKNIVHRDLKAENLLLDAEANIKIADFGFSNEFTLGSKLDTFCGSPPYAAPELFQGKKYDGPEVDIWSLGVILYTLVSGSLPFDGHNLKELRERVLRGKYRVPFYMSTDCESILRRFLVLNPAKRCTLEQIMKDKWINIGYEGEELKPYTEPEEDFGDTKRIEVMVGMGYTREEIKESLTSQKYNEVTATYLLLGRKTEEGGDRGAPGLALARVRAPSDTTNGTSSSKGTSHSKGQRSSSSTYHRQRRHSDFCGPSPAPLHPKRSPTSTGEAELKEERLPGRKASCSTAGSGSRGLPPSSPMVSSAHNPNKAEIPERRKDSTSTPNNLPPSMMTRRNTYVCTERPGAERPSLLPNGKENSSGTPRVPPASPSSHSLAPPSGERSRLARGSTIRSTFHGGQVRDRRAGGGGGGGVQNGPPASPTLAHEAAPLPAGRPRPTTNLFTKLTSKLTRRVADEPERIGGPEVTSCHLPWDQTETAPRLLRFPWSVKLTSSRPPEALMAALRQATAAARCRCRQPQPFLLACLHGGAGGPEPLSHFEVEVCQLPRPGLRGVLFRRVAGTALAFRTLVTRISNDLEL
Method in brief: (§1)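 Luminescence (RLU) was converted to percent of control, with DMSO set as 100% and a reference compound as 0%. Test compounds were run at 1 μM against 468 kinases. Kinases showing below 35% of control were scored as bound.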

PYK2 = PYK2 (Homo sapiens, UniProt Q14289); conditions: PYK2, 1 μM; read-out: % control
Method in brief: as §1

SIK2 = biological target: T2, SIK2 (Homo sapiens, UniProt Q9H0K1); conditions: SIK2, 1 μM; read-out: % control
T2 construct: purchased KinomeScan® (panel service)
Method in brief: as §1

PIK3CA(M1043I) = biological target: T3, PIK3CA(M1043I) (Homo sapiens, UniProt P42336, M1043I); conditions: read-out: % control
T3 construct: purchased KinomeScan® (panel service)
Method in brief: as §1

CLK3 = CLK3 (Homo sapiens, UniProt P49761); conditions: CLK3, 1 μM; read-out: % control
Method in brief: as §1

EGFR(G719C) = EGFR(G719C) (Homo sapiens, UniProt P00533, G719C); conditions: read-out: % control
Method in brief: as §1

ULK3 = biological target: T4, ULK3 (Homo sapiens, UniProt Q6PHR2); conditions: ULK3, 1 μM; read-out: % control
T4 sequence (Q6PHR2 1-472): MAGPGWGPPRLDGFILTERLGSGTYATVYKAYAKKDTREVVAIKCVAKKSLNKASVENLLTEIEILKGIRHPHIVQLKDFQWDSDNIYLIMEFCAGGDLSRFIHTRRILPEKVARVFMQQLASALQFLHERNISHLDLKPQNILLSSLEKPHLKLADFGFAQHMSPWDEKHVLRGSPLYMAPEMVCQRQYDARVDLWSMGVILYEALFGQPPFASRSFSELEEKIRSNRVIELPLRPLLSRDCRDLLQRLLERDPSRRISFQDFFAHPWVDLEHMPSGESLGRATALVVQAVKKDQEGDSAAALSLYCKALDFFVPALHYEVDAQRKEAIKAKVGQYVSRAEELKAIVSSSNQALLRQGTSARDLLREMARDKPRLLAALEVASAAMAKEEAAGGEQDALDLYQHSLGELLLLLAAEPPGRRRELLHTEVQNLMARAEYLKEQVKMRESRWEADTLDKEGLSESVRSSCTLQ
Method in brief: as §1

EPHB1 = biological target: T5, EPHB1 (Homo sapiens, UniProt P54762); conditions: EPHB1, 1 μM; read-out: % control
T5 sequence (P54762 18-984): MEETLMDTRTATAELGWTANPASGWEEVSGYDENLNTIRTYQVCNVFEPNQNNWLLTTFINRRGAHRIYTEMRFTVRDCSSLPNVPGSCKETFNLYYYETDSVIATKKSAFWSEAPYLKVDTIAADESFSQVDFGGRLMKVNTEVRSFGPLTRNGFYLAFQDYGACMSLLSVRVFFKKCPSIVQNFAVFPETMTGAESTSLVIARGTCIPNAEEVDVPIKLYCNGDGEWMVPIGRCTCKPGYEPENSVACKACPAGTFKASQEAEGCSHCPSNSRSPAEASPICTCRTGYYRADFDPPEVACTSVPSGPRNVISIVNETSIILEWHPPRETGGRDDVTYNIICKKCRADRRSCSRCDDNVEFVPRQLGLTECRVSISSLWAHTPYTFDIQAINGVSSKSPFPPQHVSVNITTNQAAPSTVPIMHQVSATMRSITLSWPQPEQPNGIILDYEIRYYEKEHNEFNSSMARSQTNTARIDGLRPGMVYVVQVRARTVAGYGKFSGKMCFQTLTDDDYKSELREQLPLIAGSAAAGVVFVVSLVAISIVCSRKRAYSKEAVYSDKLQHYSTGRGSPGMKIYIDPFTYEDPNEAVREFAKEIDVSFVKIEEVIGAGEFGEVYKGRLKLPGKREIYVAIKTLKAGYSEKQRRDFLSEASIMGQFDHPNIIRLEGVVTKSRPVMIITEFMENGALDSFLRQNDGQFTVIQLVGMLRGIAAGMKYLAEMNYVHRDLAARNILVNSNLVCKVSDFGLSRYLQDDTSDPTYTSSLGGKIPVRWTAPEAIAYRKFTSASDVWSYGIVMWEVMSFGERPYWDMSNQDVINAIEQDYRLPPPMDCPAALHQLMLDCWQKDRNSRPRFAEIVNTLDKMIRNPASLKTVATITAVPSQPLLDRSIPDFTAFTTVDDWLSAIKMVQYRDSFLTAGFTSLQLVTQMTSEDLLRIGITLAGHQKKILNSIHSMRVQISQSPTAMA
Method in brief: as §1

Sequence of CLK3 (P49761 whole entry): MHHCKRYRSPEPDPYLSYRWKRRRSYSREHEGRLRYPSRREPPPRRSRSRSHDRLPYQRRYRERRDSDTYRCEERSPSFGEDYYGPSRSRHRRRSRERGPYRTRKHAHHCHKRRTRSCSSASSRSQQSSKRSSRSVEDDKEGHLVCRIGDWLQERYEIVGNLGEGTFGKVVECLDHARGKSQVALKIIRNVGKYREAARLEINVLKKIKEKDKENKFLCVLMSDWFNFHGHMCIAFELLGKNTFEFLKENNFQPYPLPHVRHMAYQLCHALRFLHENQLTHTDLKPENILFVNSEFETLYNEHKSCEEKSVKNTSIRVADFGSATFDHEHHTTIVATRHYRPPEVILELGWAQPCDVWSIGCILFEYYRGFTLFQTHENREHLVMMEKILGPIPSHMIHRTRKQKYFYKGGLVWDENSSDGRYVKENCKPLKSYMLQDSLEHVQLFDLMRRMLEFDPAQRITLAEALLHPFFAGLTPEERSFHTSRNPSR
Sequence of EGFR(G719C) (P00533 25-1210 G719C): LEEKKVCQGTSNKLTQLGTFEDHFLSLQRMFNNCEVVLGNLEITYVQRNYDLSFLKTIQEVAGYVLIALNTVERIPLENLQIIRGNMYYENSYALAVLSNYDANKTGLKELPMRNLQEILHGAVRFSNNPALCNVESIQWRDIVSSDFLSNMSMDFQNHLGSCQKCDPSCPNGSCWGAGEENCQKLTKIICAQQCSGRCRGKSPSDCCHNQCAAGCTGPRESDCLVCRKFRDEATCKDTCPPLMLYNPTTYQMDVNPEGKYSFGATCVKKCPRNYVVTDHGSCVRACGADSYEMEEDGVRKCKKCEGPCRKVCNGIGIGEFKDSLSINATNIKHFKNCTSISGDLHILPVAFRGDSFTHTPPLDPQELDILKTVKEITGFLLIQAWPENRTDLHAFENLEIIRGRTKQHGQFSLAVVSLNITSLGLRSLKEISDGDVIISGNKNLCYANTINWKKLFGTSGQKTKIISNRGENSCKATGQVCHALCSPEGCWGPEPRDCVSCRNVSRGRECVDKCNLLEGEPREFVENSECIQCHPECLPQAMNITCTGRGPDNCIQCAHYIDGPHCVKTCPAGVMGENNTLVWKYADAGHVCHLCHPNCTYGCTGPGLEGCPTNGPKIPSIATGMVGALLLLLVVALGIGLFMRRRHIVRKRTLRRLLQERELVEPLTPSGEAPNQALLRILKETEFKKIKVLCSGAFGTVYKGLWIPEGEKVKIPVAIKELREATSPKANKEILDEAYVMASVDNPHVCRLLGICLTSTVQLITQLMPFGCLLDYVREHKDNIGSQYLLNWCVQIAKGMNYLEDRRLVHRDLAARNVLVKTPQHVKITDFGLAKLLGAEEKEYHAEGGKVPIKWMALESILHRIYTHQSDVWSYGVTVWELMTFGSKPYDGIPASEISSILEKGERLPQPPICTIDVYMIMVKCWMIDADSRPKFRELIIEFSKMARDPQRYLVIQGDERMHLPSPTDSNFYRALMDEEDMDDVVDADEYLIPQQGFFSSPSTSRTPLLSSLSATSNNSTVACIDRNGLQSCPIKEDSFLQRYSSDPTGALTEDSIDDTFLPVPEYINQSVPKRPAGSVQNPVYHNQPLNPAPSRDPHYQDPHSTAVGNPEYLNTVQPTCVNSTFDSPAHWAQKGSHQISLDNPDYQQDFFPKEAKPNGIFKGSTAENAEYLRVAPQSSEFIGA
T2 sequence (Q9H0K1 whole entry): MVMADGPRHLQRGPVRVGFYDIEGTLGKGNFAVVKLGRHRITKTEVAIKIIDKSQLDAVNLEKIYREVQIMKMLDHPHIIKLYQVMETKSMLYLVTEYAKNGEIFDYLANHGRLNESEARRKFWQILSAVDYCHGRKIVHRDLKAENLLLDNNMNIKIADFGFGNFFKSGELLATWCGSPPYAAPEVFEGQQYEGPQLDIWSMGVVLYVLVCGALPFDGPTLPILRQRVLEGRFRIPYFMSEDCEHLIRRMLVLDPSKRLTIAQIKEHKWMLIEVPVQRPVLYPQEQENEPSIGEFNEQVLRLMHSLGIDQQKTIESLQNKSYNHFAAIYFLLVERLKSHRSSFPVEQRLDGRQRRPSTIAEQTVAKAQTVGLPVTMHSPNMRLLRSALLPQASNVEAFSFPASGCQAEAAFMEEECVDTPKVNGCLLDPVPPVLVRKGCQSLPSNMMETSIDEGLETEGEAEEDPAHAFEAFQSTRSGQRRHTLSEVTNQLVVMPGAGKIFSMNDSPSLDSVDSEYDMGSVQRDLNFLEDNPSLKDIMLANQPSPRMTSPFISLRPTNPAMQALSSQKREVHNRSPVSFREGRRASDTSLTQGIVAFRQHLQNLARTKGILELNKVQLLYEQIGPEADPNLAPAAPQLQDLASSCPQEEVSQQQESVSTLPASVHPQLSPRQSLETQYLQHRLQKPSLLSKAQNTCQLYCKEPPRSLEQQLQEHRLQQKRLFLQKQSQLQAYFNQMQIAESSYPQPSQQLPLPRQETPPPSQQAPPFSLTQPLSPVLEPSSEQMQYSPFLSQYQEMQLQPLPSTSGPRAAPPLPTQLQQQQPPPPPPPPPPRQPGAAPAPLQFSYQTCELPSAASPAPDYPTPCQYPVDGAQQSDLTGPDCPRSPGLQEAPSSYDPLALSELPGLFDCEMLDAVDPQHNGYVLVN
T3 sequence (P42336 whole entry M1043I): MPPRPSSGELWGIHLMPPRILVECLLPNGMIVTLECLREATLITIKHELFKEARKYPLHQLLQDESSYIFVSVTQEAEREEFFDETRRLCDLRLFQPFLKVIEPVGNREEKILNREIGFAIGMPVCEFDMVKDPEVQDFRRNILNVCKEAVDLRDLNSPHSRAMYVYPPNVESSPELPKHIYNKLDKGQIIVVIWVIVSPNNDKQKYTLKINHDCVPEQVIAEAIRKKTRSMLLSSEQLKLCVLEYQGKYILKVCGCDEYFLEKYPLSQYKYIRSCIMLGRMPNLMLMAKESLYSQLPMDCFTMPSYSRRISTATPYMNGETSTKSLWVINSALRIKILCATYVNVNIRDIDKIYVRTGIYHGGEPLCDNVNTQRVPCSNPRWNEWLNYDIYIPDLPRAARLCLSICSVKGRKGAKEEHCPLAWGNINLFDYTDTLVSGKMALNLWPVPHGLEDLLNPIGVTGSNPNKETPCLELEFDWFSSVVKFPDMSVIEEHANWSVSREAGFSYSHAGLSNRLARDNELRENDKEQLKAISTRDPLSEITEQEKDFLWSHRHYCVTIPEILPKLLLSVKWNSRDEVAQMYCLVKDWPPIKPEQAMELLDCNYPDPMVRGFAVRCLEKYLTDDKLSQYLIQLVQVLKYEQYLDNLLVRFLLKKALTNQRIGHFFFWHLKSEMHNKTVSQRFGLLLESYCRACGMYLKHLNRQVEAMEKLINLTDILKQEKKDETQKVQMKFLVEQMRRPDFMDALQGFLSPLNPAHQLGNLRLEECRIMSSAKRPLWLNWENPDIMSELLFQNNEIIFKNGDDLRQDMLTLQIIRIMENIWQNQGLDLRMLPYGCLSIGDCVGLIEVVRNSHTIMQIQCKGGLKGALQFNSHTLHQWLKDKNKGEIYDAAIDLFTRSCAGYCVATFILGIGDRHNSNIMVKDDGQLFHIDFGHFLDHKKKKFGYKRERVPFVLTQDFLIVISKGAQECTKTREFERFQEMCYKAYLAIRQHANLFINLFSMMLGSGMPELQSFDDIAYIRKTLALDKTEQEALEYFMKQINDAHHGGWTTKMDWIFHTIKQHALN
Sequence of PYK2 (Q14289 whole entry): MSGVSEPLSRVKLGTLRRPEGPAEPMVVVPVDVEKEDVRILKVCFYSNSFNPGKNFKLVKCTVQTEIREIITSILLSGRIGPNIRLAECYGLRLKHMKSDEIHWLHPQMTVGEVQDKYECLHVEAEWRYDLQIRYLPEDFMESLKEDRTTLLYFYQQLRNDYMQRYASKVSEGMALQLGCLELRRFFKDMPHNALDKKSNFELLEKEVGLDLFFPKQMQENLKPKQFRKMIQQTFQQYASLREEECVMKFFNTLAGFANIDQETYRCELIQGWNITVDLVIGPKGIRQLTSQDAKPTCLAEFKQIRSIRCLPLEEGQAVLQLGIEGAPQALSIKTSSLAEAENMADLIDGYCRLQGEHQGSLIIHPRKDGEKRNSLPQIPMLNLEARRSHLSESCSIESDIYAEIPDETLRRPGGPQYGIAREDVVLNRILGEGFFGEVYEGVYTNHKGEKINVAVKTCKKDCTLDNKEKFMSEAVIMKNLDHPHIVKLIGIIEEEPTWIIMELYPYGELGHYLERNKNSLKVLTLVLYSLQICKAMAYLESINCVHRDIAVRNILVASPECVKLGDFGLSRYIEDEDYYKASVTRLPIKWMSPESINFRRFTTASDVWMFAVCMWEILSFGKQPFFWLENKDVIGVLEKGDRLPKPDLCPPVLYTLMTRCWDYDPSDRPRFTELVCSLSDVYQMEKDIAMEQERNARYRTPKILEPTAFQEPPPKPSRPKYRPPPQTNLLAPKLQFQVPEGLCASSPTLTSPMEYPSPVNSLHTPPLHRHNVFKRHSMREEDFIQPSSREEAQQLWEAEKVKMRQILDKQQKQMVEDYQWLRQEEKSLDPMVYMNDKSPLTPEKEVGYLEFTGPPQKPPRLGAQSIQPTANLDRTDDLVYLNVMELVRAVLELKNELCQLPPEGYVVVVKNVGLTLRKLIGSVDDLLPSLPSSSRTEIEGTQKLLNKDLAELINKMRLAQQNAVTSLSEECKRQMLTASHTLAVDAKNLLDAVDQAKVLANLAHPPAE

Row | Compound | remaining binding at 1 µM (MARK4) [%] | remaining binding at 1 µM (PYK2) [%] | remaining binding at 1 µM (SIK2) [%] | remaining binding at 1 µM (PIK3CA(M1043I)) [%] | remaining binding at 1 µM (CLK3) [%] | remaining binding at 1 µM (EGFR(G719C)) [%] | remaining binding at 1 µM (ULK3) [%] | remaining binding at 1 µM (EPHB1) [%]
1 | CNc1c(-c2ccc(C(=O)N3CCC(N4CCOCC4)CC3)cc2)cnc2[nH]cc(Cl)c12 [Compound 96, (4-(3-chloro-4-(methylamino)-1H-pyrrolo[2,3-b]pyridin-5-yl)phenyl)(4-morpholinopiperidin-1-yl)methanone] | 38 | 92 | 85 | 81 | 98 | 100 | 10 | 100
2 | O=C(c1ccc(-c2cnc3[nH]cc(Cl)c3c2NC2CCCC2)cc1)N1CCC(N2CCOCC2)CC1 [Compound 101, (4-(3-chloro-4-(cyclopentylamino)-1H-pyrrolo[2,3-b]pyridin-5-yl)phenyl)(4-morpholinopiperidin-1-yl)methanone] | 82 | 78 | 84 | 100 | 97 | 91 | 92 | 95
3 | CNc1c(-c2cnn([C@H]3CCN(C(C)=O)C[C@@H]3F)c2)cnc2[nH]cc(Cl)c12 [Compound 77, 1-((3S,4S)-4-(4-(3-chloro-4-(methylamino)-1H-pyrrolo[2,3-b]pyridin-5-yl)-1H-pyrazol-1-yl)-3-fluoropiperidin-1-yl)ethan-1-one] | 36 | 89 | 100 | 66 | 88 | 91 | 5.5 | 93
